Measurements reported in BindingDB's records for doi:10.1016/j.bmcl.2009.03.086 (The Scripps Research Institute, 2009).

Key:
[1] = molecular target: Isoform Alpha-1 of Mitogen-activated protein kinase 10 (Alpha-1) 9-402] (Homo sapiens, UniProt P53779); experiment: Homogeneous Time-resolved Fluorescence Assay; conditions: pH 7; 22 °C
Procedure: (§1) Biochemical IC50s for JNK were determined using HTRF. In each assay the phosphor-Thr71-ATF-2 product was detected using a Europium-cryptate labeled anti-phospho-Thr71-ATF-2 antibody. Streptavidin-allophycocyanin-XL was used as the acceptor. A 10-point dose-response curve for each compound was generated in duplicate and data was fit to a four parameter logistic.

[2] = molecular target: Mitogen-activated protein kinase 8 (Homo sapiens, UniProt P45983); experiment: Homogeneous Time-resolved Fluorescence Assay
Chain of Mitogen-activated protein kinase 8 (P45983 whole entry): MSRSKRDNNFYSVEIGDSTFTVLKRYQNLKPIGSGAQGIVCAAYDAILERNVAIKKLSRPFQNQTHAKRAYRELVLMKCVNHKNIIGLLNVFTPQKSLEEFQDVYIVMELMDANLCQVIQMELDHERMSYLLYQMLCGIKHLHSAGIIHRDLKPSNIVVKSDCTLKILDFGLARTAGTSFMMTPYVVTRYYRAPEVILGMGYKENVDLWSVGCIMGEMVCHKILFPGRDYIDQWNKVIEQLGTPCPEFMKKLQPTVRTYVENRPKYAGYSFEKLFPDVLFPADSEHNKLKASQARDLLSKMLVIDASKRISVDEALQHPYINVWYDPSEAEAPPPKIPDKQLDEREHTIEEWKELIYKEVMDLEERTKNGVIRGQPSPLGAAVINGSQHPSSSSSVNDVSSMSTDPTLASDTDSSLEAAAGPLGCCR
Procedure: as §1

Chain of Isoform Alpha-1 of Mitogen-activated protein kinase 10 (Alpha-1) 9-402] (P53779 39-402): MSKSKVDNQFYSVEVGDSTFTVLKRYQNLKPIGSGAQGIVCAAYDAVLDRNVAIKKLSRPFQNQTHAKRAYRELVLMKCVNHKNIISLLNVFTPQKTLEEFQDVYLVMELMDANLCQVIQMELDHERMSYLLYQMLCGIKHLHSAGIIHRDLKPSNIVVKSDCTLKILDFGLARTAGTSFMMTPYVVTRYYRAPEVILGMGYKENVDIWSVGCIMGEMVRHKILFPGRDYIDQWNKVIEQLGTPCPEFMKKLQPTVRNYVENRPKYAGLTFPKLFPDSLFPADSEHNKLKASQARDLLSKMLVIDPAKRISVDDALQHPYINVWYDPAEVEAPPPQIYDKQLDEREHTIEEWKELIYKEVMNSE

IC50 [1]: 1260 nM | IC50 [2]: 380 nM
SMILES: C=CCN1CCN(c2c(Cl)cccc2NC(=O)c2ccc(Br)o2)CC1 [piperazine amide, 6a]
